{"source": "patent US11129842B2", "about": "“Methods and compositions for treating diseases related to imbalance of essential fatty acids” (BODYBIO INC., priority 2018, dated 2021)", "origin": "cited, not measured here", "key": {"CB1 cannabinoid receptor": {"biological_target": "CB1 cannabinoid receptor (Homo sapiens, UniProt P21554)", "sequence (P21554 whole entry)": "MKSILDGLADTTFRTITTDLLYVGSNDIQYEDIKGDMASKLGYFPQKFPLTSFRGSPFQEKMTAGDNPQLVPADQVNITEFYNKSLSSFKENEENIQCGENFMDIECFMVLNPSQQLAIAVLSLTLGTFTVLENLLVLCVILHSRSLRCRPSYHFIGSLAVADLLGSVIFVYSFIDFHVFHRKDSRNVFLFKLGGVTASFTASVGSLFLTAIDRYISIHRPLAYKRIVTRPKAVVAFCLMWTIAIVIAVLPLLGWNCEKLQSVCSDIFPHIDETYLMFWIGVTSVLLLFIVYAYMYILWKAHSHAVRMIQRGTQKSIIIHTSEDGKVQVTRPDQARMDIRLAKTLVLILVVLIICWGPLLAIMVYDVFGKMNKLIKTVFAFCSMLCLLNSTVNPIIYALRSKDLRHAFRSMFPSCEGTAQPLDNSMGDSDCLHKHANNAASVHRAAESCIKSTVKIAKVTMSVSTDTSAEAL"}, "CB2 receptor": {"biological_target": "CB2 receptor (Homo sapiens, UniProt P34972)", "sequence (P34972 whole entry)": "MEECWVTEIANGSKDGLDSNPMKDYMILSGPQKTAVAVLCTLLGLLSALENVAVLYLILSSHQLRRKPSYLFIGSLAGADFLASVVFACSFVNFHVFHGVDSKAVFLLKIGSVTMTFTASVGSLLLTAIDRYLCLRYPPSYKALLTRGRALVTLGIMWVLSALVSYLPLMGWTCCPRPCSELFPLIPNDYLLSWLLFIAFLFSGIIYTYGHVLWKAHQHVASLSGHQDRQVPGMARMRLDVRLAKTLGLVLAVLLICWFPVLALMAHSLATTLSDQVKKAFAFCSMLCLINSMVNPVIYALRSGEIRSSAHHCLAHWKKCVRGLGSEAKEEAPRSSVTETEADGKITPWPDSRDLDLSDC"}}}
{"smiles": "CCCCC/C=C\\C/C=C\\C/C=C\\C/C=C\\CCCCOC(CO)CO", "note": "[Noladin ether, 2-arachidonyl glyceryl ether]", "values": [{"measurement": "Ki", "setting": "CB1 cannabinoid receptor", "value": 21.2, "unit": "nM"}, {"measurement": "binding to the CB2 receptor", "setting": "CB2 receptor", "value": "only weakly"}]}
